Experimental data published in paper PMC11079024, “Identification of a family of species-selective complex I inhibitors as potential anthelmintics” (Nature Communications, 2024).
Read-outs that look alike come from different tables or passages of the source.

What was measured:
[1] = target: C. elegans (N2) complex I (NADH:ubiquinone oxidoreductase) (Caenorhabditis elegans, UniProt P24887+Q93873+Q94360); test: biochemical; format: biochemical; settings: for activity at 0.0001 µM / activity at 0.0005 µM / activity at 0.001 µM / activity at 0.0025 µM / activity at 0.005 µM / activity at 0.013 µM / activity at 0.025 µM / activity at 0.063 µM / activity at 0.125 µM / activity at 0.313 µM / activity at 0.625 µM / activity at 1.5 µM / activity at 3 µM / activity at 15 µM / activity at 75 µM / activity at 37.5 µM: read-out: C. elegans mitochondrial complex I activity; for Log IC50 C. elegans complex I: log10 of IC50 in µM, C. elegans mitochondria
C. elegans (N2) complex I (NADH:ubiquinone oxidoreductase), sequence (Q94360 17-199): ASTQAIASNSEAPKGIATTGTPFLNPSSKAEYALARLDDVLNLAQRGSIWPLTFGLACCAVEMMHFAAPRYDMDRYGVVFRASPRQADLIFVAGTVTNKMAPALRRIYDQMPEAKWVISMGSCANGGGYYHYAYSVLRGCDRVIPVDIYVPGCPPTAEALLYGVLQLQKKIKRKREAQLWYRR
C. elegans (N2) complex I (NADH:ubiquinone oxidoreductase), sequence (P24887 whole entry): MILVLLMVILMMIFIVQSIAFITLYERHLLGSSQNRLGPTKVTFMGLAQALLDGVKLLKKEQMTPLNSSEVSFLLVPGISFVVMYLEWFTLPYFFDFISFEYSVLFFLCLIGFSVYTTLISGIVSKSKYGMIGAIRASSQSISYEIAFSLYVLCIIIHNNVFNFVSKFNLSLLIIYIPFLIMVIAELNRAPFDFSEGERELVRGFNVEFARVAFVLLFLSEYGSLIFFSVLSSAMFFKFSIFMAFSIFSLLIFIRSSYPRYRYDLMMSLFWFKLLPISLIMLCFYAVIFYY
C. elegans (N2) complex I (NADH:ubiquinone oxidoreductase), sequence (Q93873 31-482): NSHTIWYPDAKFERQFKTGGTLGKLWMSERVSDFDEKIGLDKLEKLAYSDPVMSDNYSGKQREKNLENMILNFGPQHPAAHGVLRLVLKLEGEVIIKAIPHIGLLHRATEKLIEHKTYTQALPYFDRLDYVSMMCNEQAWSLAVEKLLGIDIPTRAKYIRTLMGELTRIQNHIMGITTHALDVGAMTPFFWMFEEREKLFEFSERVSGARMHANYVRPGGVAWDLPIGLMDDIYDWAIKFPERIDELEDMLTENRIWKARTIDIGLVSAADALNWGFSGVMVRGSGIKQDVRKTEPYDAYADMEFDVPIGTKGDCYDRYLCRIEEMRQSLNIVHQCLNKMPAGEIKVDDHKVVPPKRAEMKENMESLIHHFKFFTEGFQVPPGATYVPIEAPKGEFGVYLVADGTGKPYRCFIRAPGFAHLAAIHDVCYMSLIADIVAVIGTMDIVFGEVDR
Method in brief: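 Complex I rate: initial linear slope of A600 over 15 min, expressed as percent of solvent control. Triple freeze-thawed mitochondria (0.2 mg/mL) in KPi pH 7.5, BSA 3 mg/mL, NADH 80 μM, decylubiquinone 60 μM, DCIP 160 μM, antimycin A, KCN.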

[2] = test system: L1 wild-type C. elegans; settings: for Screen "Hit": 50 μM
[3] = in vitro; settings: human; for viability at 2 days, 3.13 µM / viability at 2 days, 6.25 µM / viability at 2 days, 25 µM / viability at 2 days, 50 µM / viability at 2 days, 100 µM / viability at 2 days, 12.5 µM: HEK293 cells (Flp-In-293), HEK293 viability
[4] = wild-type C. elegans mitochondria, estimated from fitted dose-response curves, read-out: C. elegans Complex I IC50
[5] = KCN survival assay, hit = relative motility below 0.25
[6] = HEK293 Cell Viability Assay LC50, HEK293 cells, estimated from fitted dose-response curves, mean of at least two biological replicates
[7] = in vitro complex I dose response on C. elegans mitochondria, average of at least two biological replicates, fit in R (DRC), read-out: IC50 C. elegans complex I
[8] = wild-type (N2) mitochondria, read-out: C. elegans Complex I IC50
[9] = Dose 0.2 µM, mean of at least three biological replicates

SMILES	activity at 0.0001 µM [1] [%]	activity at 0.0005 µM [1] [%]	activity at 0.001 µM [1] [%]	activity at 0.0025 µM [1] [%]	activity at 0.005 µM [1] [%]	activity at 0.013 µM [1] [%]	activity at 0.025 µM [1] [%]	activity at 0.063 µM [1] [%]	activity at 0.125 µM [1] [%]	activity at 0.313 µM [1] [%]	activity at 0.625 µM [1] [%]	activity at 1.5 µM [1] [%]	activity at 3 µM [1] [%]	activity at 15 µM [1] [%]	activity at 75 µM [1] [%]	Log IC50 C. elegans complex I [1] [µM]	C. elegans KCN Survival ([2]; Dose 0.39 µM)	C. elegans KCN Survival ([2]; Dose 1.56 µM)	C. elegans KCN Survival ([2]; Dose 3.13 µM)	C. elegans KCN Survival ([2]; Dose 6.25 µM)	further results
Brc1ccccc1OCCCCn1cnc2ccccc21 [Compound 7924576]	82.9	89.9	81.8	93.2	91.6	87.2	76	73.6	67.2	52.4	40.5	21.3	12.5	10.2	5.45	-0.37	0.969	0.940	0.862	0.585	IC50 [1, 4]: 430 nM; Screen "Hit" [2, 5]: Y (hits were identified as compounds that reduced relative motility below 0.25 (75% reduction)); C. elegans KCN Survival ([2]; Dose 12.5 µM): 0.135; C. elegans KCN Survival ([2]; Dose 25 µM): 0.138; C. elegans KCN Survival ([2]; Dose 50 µM): 0.159; C. elegans KCN Survival ([2]; Dose 100 µM): 0.208; CC50 at 2 days [3, 6]: 44300 nM; viability at 2 days, 3.13 µM [3]: 96.3%; viability at 2 days, 6.25 µM [3]: 98.1%; viability at 2 days, 25 µM [3]: 82.8%; viability at 2 days, 50 µM [3]: 40.2%; viability at 2 days, 100 µM [3]: 6.9%
FC(F)(F)c1cccc(OCCCCn2cnc3ccccc32)c1 [Compound 7925004]	115	105	110	110	105	103	105	104	98	81.9	91.2	67.6	48.6	22.1	1.4	0.31	1.068	1.004	1.026	0.948	activity at 37.5 µM [1]: 13.1%; IC50 [1, 7]: 2060 nM; IC50 [1, 8]: 2060 nM; IC50 [1, 4]: 2060 nM; Screen "Hit" [2, 5]: Y (hits were identified as compounds that reduced relative motility below 0.25 (75% reduction)); C. elegans KCN Survival [2, 9]: 1.053; C. elegans KCN Survival ([2]; Dose 12.5 µM): 0.632; C. elegans KCN Survival ([2]; Dose 25 µM): 0.094; C. elegans KCN Survival ([2]; Dose 50 µM): 0.092; C. elegans KCN Survival ([2]; Dose 100 µM): 0.126; CC50 at 2 days [3]: 29200 nM; viability at 2 days, 3.13 µM [3]: 99.3%; viability at 2 days, 6.25 µM [3]: 99.5%; viability at 2 days, 12.5 µM [3]: 100%; viability at 2 days, 25 µM [3]: 61.3%; viability at 2 days, 50 µM [3]: 16.2%; viability at 2 days, 100 µM [3]: 6.8%
CCc1cc(OCCn2cnc3ccccc32)ccc1Cl [Compound 7925288]	89.3	90.8	94	90.8	98.8	96.9	96.9	63.2	63.3	77.6	77.6	60.7	46.8	16.1	2.28	0.91	1.088	1.105	1.186	1.064	activity at 37.5 µM [1]: 4.53%; IC50 [1, 7]: 8090 nM; IC50 ([1]; wild-type C. elegans mitochondria, read-out: C. elegans Complex I IC50): 8090 nM; Screen "Hit" ([2]; hit = relative motility below 0.25 3 hours after removal of KCN): Y (hits were identified as compounds that reduced relative motility below 0.25 (75% reduction)); C. elegans KCN Survival [2, 9]: 1.082; C. elegans KCN Survival ([2]; Dose 12.5 µM): 0.930; C. elegans KCN Survival ([2]; Dose 25 µM): 0.276; C. elegans KCN Survival ([2]; Dose 50 µM): 0.146; C. elegans KCN Survival ([2]; Dose 100 µM): 0.159; CC50 at 2 days ([3]; HEK293 Cell Viability Assay LC50, HEK293 cells, estimated from fitted dose-response curves): 34100 nM; viability at 2 days, 3.13 µM [3]: 91.4%; viability at 2 days, 6.25 µM [3]: 96.8%; viability at 2 days, 12.5 µM [3]: 93.6%; viability at 2 days, 25 µM [3]: 81.1%; viability at 2 days, 50 µM [3]: 8.7%; viability at 2 days, 100 µM [3]: 7.1%
Cc1ccc(SCCCCn2cnc3ccccc32)cc1 [Compound 7925333]	91.6	94.2	101	95.1	100	91.2	93.7	96.6	81	64.2	65.6	44	28.6	10.5	7.08	0.017	1.001	0.933	0.876	0.745	activity at 37.5 µM [1]: 5.81%; IC50 [1, 7]: 1040 nM; IC50 [1, 8]: 1040 nM; IC50 [1, 4]: 1040 nM; Screen "Hit" [2, 5]: Y (hits were identified as compounds that reduced relative motility below 0.25 (75% reduction)); C. elegans KCN Survival [2, 9]: 0.989; C. elegans KCN Survival ([2]; Dose 12.5 µM): 0.174; C. elegans KCN Survival ([2]; Dose 25 µM): 0.119; C. elegans KCN Survival ([2]; Dose 50 µM): 0.151; C. elegans KCN Survival ([2]; Dose 100 µM): 0.185; CC50 at 2 days [3, 6]: 75100 nM; viability at 2 days, 3.13 µM [3]: 88.6%; viability at 2 days, 6.25 µM [3]: 97%; viability at 2 days, 12.5 µM [3]: 99.2%; viability at 2 days, 25 µM [3]: 100%; viability at 2 days, 50 µM [3]: 77.2%; viability at 2 days, 100 µM [3]: 25.7%
Clc1ccc(SCCCCn2cnc3ccccc32)cc1 [Compound 7925515]	90.8	89.5	93.5	93.3	91	90.5	86.2	83.9	76.1	69.1	60.1	39.1	22	10.5	5.86	-0.0223	1.005	0.967	0.917	0.704	activity at 37.5 µM [1]: 7.84%; IC50 [1, 7]: 950 nM; IC50 [1, 8]: 950 nM; IC50 [1, 4]: 950 nM; Screen "Hit" [2, 5]: Y (hits were identified as compounds that reduced relative motility below 0.25 (75% reduction)); C. elegans KCN Survival [2, 9]: 0.966; C. elegans KCN Survival ([2]; Dose 12.5 µM): 0.109; C. elegans KCN Survival ([2]; Dose 25 µM): 0.129; C. elegans KCN Survival ([2]; Dose 50 µM): 0.146; C. elegans KCN Survival ([2]; Dose 100 µM): 0.182; CC50 at 2 days [3, 6]: 57300 nM; viability at 2 days, 3.13 µM [3]: 83.6%; viability at 2 days, 6.25 µM [3]: 92.4%; viability at 2 days, 12.5 µM [3]: 94.2%; viability at 2 days, 25 µM [3]: 96.8%; viability at 2 days, 50 µM [3]: 55.5%; viability at 2 days, 100 µM [3]: 12.7%
